# Test results published in patent US11382328B2, “Rapid drug discovery methods for pathogen inactivation” (priority 2019, dated 2022).
# Several values for one entry are separate records, joined by “and”; a condition that tells them apart may be missing. Equal entries are not always repeated.
# Tested on: E. coli strain W3110
# Assay: Synergy assays: Biolog chemical sensitivity panels with Group IB metal, coefficient of drug interaction (CDI) from relative growth
# Format: cell-based
# Details: for CDI (coefficient of drug interaction), copper mixed with biocide: Copper (mM) section; for CDI (coefficient of drug interaction), gold + biocide: Gold (μM)
# [1] = 1st of 3 copper concentrations (value not shown), 1st of four biocide concentrations
# [2] = 1st of 3 copper concentrations (value not shown), 2nd of four biocide concentrations
# [3] = 1st of 3 copper concentrations (value not shown), 3rd of four biocide concentrations
# [4] = 1st of 3 copper concentrations (value not shown), 4th of four biocide concentrations
# [5] = 2nd of 3 copper concentrations (value not shown), 1st of four biocide concentrations
# [6] = 2nd of 3 copper concentrations (value not shown), 2nd of four biocide concentrations
# [7] = 2nd of 3 copper concentrations (value not shown), 3rd of four biocide concentrations
# [8] = 2nd of 3 copper concentrations (value not shown), 4th of four biocide concentrations
# [9] = 3rd of 3 copper concentrations (value not shown), 2nd of four biocide concentrations
# [10] = 3rd of 3 copper concentrations (value not shown), 3rd of four biocide concentrations
# [11] = 3rd of 3 copper concentrations (value not shown), 4th of four biocide concentrations
# [12] = Gold section of Table 5, first of three gold concentrations (μM, value not given), biocide concentration 2 of 4
# [13] = Gold section of Table 5, first of three gold concentrations (μM, value not given), biocide concentration 3 of 4
# [14] = Gold section of Table 5, first of three gold concentrations (μM, value not given), biocide concentration 4 of 4
# [15] = Gold section of Table 5, second of three gold concentrations (μM, value not given), biocide concentration 1 of 4
# [16] = Gold section of Table 5, second of three gold concentrations (μM, value not given), biocide concentration 2 of 4
# [17] = Gold section of Table 5, second of three gold concentrations (μM, value not given), biocide concentration 3 of 4
# [18] = Gold section of Table 5, second of three gold concentrations (μM, value not given), biocide concentration 4 of 4
# [19] = Gold section of Table 5, third of three gold concentrations (μM, value not given), biocide concentration 1 of 4
# [20] = Gold section of Table 5, third of three gold concentrations (μM, value not given), biocide concentration 2 of 4
# [21] = Gold section of Table 5, third of three gold concentrations (μM, value not given), biocide concentration 3 of 4
# [22] = Gold section of Table 5, third of three gold concentrations (μM, value not given), biocide concentration 4 of 4
# [23] = Silver 0.5 μM, 1st of four biocide concentrations, E. coli
# [24] = Silver 0.5 μM, 2nd of four biocide concentrations, E. coli
# [25] = Silver 0.5 μM, 3rd of four biocide concentrations, E. coli
# [26] = Silver 0.5 μM, 4th of four biocide concentrations, E. coli
# [27] = Silver 1.0 μM, 1st of four biocide concentrations, E. coli
# [28] = Silver 1.0 μM, 2nd of four biocide concentrations, E. coli
# [29] = Silver 1.0 μM, 3rd of four biocide concentrations, E. coli
# [30] = Silver 1.0 μM, 4th of four biocide concentrations, E. coli
# [31] = Silver 5.0 μM, 3rd of four biocide concentrations, E. coli
# [32] = Silver 5.0 μM, 4th of four biocide concentrations, E. coli
substance,measurement,setting,value
poly-L-lysine,"CDI (coefficient of drug interaction), copper mixed with biocide",[1],1.15
same,"CDI (coefficient of drug interaction), copper mixed with biocide",[2],0.95
same,"CDI (coefficient of drug interaction), copper mixed with biocide",[3],Tox
same,"CDI (coefficient of drug interaction), copper mixed with biocide",[4],Tox
same,"CDI (coefficient of drug interaction), copper mixed with biocide",[5],1.03
same,"CDI (coefficient of drug interaction), copper mixed with biocide",[6],0.96
same,"CDI (coefficient of drug interaction), copper mixed with biocide",[7],Tox
same,"CDI (coefficient of drug interaction), copper mixed with biocide",[8],Tox
same,"CDI (coefficient of drug interaction), copper mixed with biocide",[9],0.59
same,"CDI (coefficient of drug interaction), copper mixed with biocide",[10],Tox
same,"CDI (coefficient of drug interaction), copper mixed with biocide",[11],Tox
same,CDI (coefficient of drug interaction),"Gold section of Table 5, first of three gold concentrations (μM, value not given), biocide concentration 1 of 4",1.07
same,CDI (coefficient of drug interaction),[12],0.98
same,CDI (coefficient of drug interaction),[13],Tox
same,CDI (coefficient of drug interaction),[14],Tox
same,CDI (coefficient of drug interaction),[15],1.08
same,CDI (coefficient of drug interaction),[16],1.06
same,CDI (coefficient of drug interaction),[17],Tox
same,CDI (coefficient of drug interaction),[18],Tox
same,CDI (coefficient of drug interaction),[19],0.93
same,CDI (coefficient of drug interaction),[20],0.88
same,CDI (coefficient of drug interaction),[21],Tox
same,CDI (coefficient of drug interaction),[22],Tox
same,"CDI (coefficient of drug interaction), silver + biocide",[23],0.92
same,"CDI (coefficient of drug interaction), silver + biocide",[24],0.96
same,"CDI (coefficient of drug interaction), silver + biocide",[25],Tox
same,"CDI (coefficient of drug interaction), silver + biocide",[26],Tox
same,"CDI (coefficient of drug interaction), silver + biocide",[27],0.88
same,"CDI (coefficient of drug interaction), silver + biocide",[28],0.88
same,"CDI (coefficient of drug interaction), silver + biocide",[29],Tox
same,"CDI (coefficient of drug interaction), silver + biocide",[30],Tox
same,"CDI (coefficient of drug interaction), silver + biocide",[31],Tox
same,"CDI (coefficient of drug interaction), silver + biocide",[32],Tox
polymyxin B,CDI (coefficient of drug interaction),"Copper (mM), 1st of 3 copper concentrations (head line not shown), biocide concentration 1 of 4, E. coli",0.90
same,CDI (coefficient of drug interaction),"Copper (mM), 1st of 3 copper concentrations (head line not shown), biocide concentration 3 of 4, E. coli",Tox
same,CDI (coefficient of drug interaction),"Copper (mM), 1st of 3 copper concentrations (head line not shown), biocide concentration 4 of 4, E. coli",Tox
same,CDI (coefficient of drug interaction),"Copper (mM), 2nd of 3 copper concentrations (head line not shown), biocide concentration 1 of 4, E. coli",0.97 and 0.75
same,CDI (coefficient of drug interaction),"Copper (mM), 2nd of 3 copper concentrations (head line not shown), biocide concentration 3 of 4, E. coli",Tox
same,CDI (coefficient of drug interaction),"Copper (mM), 2nd of 3 copper concentrations (head line not shown), biocide concentration 4 of 4, E. coli",Tox
same,CDI (coefficient of drug interaction),"Copper (mM), 3rd of 3 copper concentrations (head line not shown), biocide concentration 1 of 4, E. coli",0.82 and 0.56
same,CDI (coefficient of drug interaction),"Copper (mM), 3rd of 3 copper concentrations (head line not shown), biocide concentration 3 of 4, E. coli",Tox
same,CDI (coefficient of drug interaction),"Copper (mM), 3rd of 3 copper concentrations (head line not shown), biocide concentration 4 of 4, E. coli",Tox
same,"CDI (coefficient of drug interaction), gold + biocide","first of 3 gold concentrations, biocide concentration 1 of 4",1.07 and 0.97
same,"CDI (coefficient of drug interaction), gold + biocide","first of 3 gold concentrations, biocide concentration 4 of 4",Tox
same,"CDI (coefficient of drug interaction), gold + biocide","second of 3 gold concentrations, biocide concentration 1 of 4",1.10 and 0.99
same,"CDI (coefficient of drug interaction), gold + biocide","second of 3 gold concentrations, biocide concentration 4 of 4",Tox
same,"CDI (coefficient of drug interaction), gold + biocide","third of 3 gold concentrations, biocide concentration 1 of 4",1.00 and 0.92
same,"CDI (coefficient of drug interaction), gold + biocide","third of 3 gold concentrations, biocide concentration 4 of 4",Tox
same,CDI,"Silver 0.5 μM, biocide concentration 1 of 4",1.37 and 0.79
same,CDI,"Silver 0.5 μM, biocide concentration 4 of 4",Tox
same,CDI,"Silver 1.0 μM, biocide concentration 1 of 4",1.23 and 0.85
same,CDI,"Silver 1.0 μM, biocide concentration 4 of 4",Tox
same,CDI,"Silver 5.0 μM, biocide concentration 4 of 4",Tox
protamine sulfate,"CDI (coefficient of drug interaction), copper mixed with biocide",[1],0.79
same,"CDI (coefficient of drug interaction), copper mixed with biocide",[2],Tox
same,"CDI (coefficient of drug interaction), copper mixed with biocide",[3],Tox
same,"CDI (coefficient of drug interaction), copper mixed with biocide",[4],Tox
same,"CDI (coefficient of drug interaction), copper mixed with biocide",[5],1.09
same,"CDI (coefficient of drug interaction), copper mixed with biocide",[6],1.26
same,"CDI (coefficient of drug interaction), copper mixed with biocide",[7],Tox
same,"CDI (coefficient of drug interaction), copper mixed with biocide",[8],Tox
same,"CDI (coefficient of drug interaction), copper mixed with biocide","3rd of 3 copper concentrations (value not shown), 1st of four biocide concentrations",0.56
same,"CDI (coefficient of drug interaction), copper mixed with biocide",[9],Tox
same,"CDI (coefficient of drug interaction), copper mixed with biocide",[10],Tox
same,"CDI (coefficient of drug interaction), copper mixed with biocide",[11],Tox
same,CDI (coefficient of drug interaction),[12],0.96
same,CDI (coefficient of drug interaction),[13],0.49
same,CDI (coefficient of drug interaction),[14],Tox
same,CDI (coefficient of drug interaction),[15],0.99
same,CDI (coefficient of drug interaction),[16],0.94
same,CDI (coefficient of drug interaction),[17],2.22
same,CDI (coefficient of drug interaction),[18],Tox
same,CDI (coefficient of drug interaction),[19],0.92
same,CDI (coefficient of drug interaction),[20],1.09
same,CDI (coefficient of drug interaction),[21],1.56
same,CDI (coefficient of drug interaction),[22],Tox
same,"CDI (coefficient of drug interaction), silver + biocide",[23],1.10
same,"CDI (coefficient of drug interaction), silver + biocide",[24],1.15
same,"CDI (coefficient of drug interaction), silver + biocide",[25],Tox
same,"CDI (coefficient of drug interaction), silver + biocide",[26],Tox
same,"CDI (coefficient of drug interaction), silver + biocide",[27],0.95
same,"CDI (coefficient of drug interaction), silver + biocide",[28],1.00
same,"CDI (coefficient of drug interaction), silver + biocide",[29],Tox
same,"CDI (coefficient of drug interaction), silver + biocide",[30],Tox
same,"CDI (coefficient of drug interaction), silver + biocide","Silver 5.0 μM, 1st of four biocide concentrations, E. coli",0.84
same,"CDI (coefficient of drug interaction), silver + biocide","Silver 5.0 μM, 2nd of four biocide concentrations, E. coli",0.90
same,"CDI (coefficient of drug interaction), silver + biocide",[31],Tox
same,"CDI (coefficient of drug interaction), silver + biocide",[32],Tox
